The values that follow come from US4180436A, “Antibacterial compounds and process for production thereof” (Kyowa Hakko Kogyo Co., Ltd., priority 1977, dated 1979).

The test system of series [1] is Bacillus subtilis PCI 219. The experiment in a line: antibacterial activity by disc method. The format is cell-based. Particulars: PCI219, pH: no adjustment. The text has this:
(§1) The antibacterial activity of the compound S551-II against various microorganisms by disc method (pH: no adjustment) is shown in the following Table 1.

Series [2] deals with Penicillium chrysogenum IAM 7142. Description: antibacterial activity by disc method. It counts as cell-based. The conditions noted are these: IAM7142, pH: no adjustment.
Excerpt: as §1

The subject of series [3] is Aspergillus niger ATCC 6275. Description: antibacterial activity by disc method. It counts as cell-based. Particulars: ATCC6275, pH: no adjustment.
Excerpt: as §1

The next series relates to Salmonella enteritidis. The experiment in a line: antibacterial activity by disc method. It counts as cell-based. Particulars: Salmonella enterica, pH: no adjustment.
Excerpt: as §1

A further series concerns Irycoderma T-1 ATCC 9645. Description: antibacterial activity by disc method. It counts as cell-based.
Excerpt: as §1

Another series concerns gypseum IFO 5948. Description: antibacterial activity by disc method. The format is cell-based. The conditions noted are these: pH: no adjustment.
Excerpt: as §1

In series [4] the test system is Staphylococcus aureus FAD 209P. The experiment in a line: antibacterial activity by disc method. Particulars: pH: no adjustment. It counts as cell-based.
Excerpt: as §1

In series [5] the test system is Escherichia coli ATCC 3655. The experiment in a line: antibacterial activity by disc method. The format is cell-based. The conditions noted are these: ATCC3655, pH: no adjustment.
Excerpt: as §1

The subject of series [6] is Alternaria solani IFO 5924. The experiment in a line: antibacterial activity by disc method. Particulars: IFO5924, pH: no adjustment. The format is cell-based.
Excerpt: as §1

Series [7] has as its system Cladosporium herbarum Link Fr IAM 5059. The experiment in a line: antibacterial activity by disc method. It counts as cell-based. Particulars: IAM5059, pH: no adjustment.
Excerpt: as §1

For series [8], the system named is Escherichia coli IAM 1268. The experiment in a line: antibacterial activity by disc method. The format is cell-based. Particulars: IAM1268, pH: no adjustment.
Excerpt: as §1

The test system of series [9] is Proteus vulgaris HX19 IAM 1025. Description: antibacterial activity by disc method. The format is cell-based. The conditions noted are these: IAM1025, pH: no adjustment.
Excerpt: as §1

The subject of another series is Sarcina lutea IAM 1099. Description: antibacterial activity by disc method. The conditions noted are these: Micrococcus luteus, IAM1099, pH: no adjustment. It counts as cell-based.
Excerpt: as §1

The subject of the next series is Diplococcus pneumoniae. Description: antibacterial activity by disc method. It counts as cell-based. Particulars: Streptococcus pneumoniae, pH: no adjustment.
Excerpt: as §1

Series [10] relates to Chaetomium globosum ATCC 6025. The experiment in a line: antibacterial activity by disc method. It counts as cell-based. The conditions noted are these: ATCC6025, pH: no adjustment.
Excerpt: as §1

The test system of series [11] is Myrothecium verrucaria IAM 5063. Description: antibacterial activity by disc method. The format is cell-based. The conditions noted are these: Albifimbria verrucaria, IAM5063, pH: no adjustment.
Excerpt: as §1

Series [12] has as its system Trycophyton mentagrophytes IAM 5064. Description: antibacterial activity by disc method. The conditions noted are these: pH: no adjustment. It counts as cell-based.
Excerpt: as §1

In series [13] the test system is Dusariium moniliforme IAM 5062. The experiment in a line: antibacterial activity by disc method. It counts as cell-based. The conditions noted are these: pH: no adjustment.
Excerpt: as §1

Series [14] deals with Serratia marcescens IAM 1022. The experiment in a line: antibacterial activity by disc method. The format is cell-based. The conditions noted are these: IAM1022, pH: no adjustment.
Excerpt: as §1

The subject of series [15] is Saccharomyces cerevisiae IAM 4485. The experiment in a line: antibacterial activity by disc method. It counts as cell-based. The conditions noted are these: IAM4485, pH: no adjustment.
Excerpt: as §1

In series [16] the test system is Candida albicans IAM 4888. Description: antibacterial activity by disc method. It counts as cell-based. The conditions noted are these: IAM4888, pH: no adjustment.
Excerpt: as §1

Series [17] has as its system Bacillus subtilis IAM 1026. The experiment in a line: antibacterial activity by disc method. The format is cell-based. The conditions noted are these: IAM1026, pH: no adjustment.
Excerpt: as §1

Series [18] relates to Pseudomonas fluorescens ATCC 27. Description: antibacterial activity by disc method. The format is cell-based. The conditions noted are these: ATCC27, pH: no adjustment.
Excerpt: as §1

The test system of a further series is Saccharomyces rouxii M-9. The experiment in a line: antibacterial activity by disc method. The format is cell-based. Particulars: Zygosaccharomyces rouxii, M9, pH: no adjustment.
Excerpt: as §1

Series [19] concerns Mucor spinescens IAM 6071. Description: antibacterial activity by disc method. It counts as cell-based. The conditions noted are these: IAM6071, pH: no adjustment.
Excerpt: as §1

For series [20], the system named is Aspergillus oryzae NRRL 692. Description: antibacterial activity by disc method. The format is cell-based. The conditions noted are these: NRRL692, pH: no adjustment.
Excerpt: as §1

The subject of the next series is Shigella sonnei E23. Description: antibacterial activity by disc method. The format is cell-based.
Excerpt: as §1

In series [21] the test system is Pseudomonas aeruginosa IAM 1156. Description: antibacterial activity by disc method. The format is cell-based. Particulars: IAM1156, pH: no adjustment.
Excerpt: as §1

Another series has as its system Bacillus subtilis NA 64. The experiment in a line: antibacterial activity by disc method. The format is cell-based. Particulars: NA64, pH: no adjustment.
Excerpt: as §1

Series [22] deals with Klebsiella pneumoniae 348. Description: antibacterial activity by disc method. It counts as cell-based. Particulars: pH: no adjustment.
Excerpt: as §1

Series [23] deals with Penicillium chrysogenum Q 176. Description: antibacterial activity by disc method. It counts as cell-based. Particulars: Q176, pH: no adjustment.
Excerpt: as §1

Series [24] concerns Aspergillus niger IAM 2026. Description: antibacterial activity by disc method. It counts as cell-based. The conditions noted are these: IAM2026, pH: no adjustment.
Excerpt: as §1

The next series can be described thus: Solubilities. The format is physicochemical. Particulars: solvents named in the value.
For series [25], the system named is Escherichia coli ATCC 3655. Description: antibacterial activity by agar dilution method. The format is cell-based. Particulars: ATCC3655, pH 7.0. The text has this:
(§2) The antibacterial activity of the compound S551-II-A against various microorganism by agar dilution method (pH 7.0) is shown in Table 2.

The subject of series [26] is Staphylococcus aureus ATCC 6538P. Description: antibacterial activity by agar dilution method. It counts as cell-based. The conditions noted are these: ATCC6538P, pH 7.0.
Excerpt: as §2
In general terms: In agar dilution the substance is mixed into plates at graded concentrations.

Series [27] has as its system Bacilus subtilis ATCC 10707. Description: antibacterial activity by agar dilution method. It counts as cell-based. The conditions noted are these: pH 7.0.
Excerpt: as §2

The subject of series [28] is Klebsiella pneumoniae ATCC 10031. Description: antibacterial activity by agar dilution method. The format is cell-based. Particulars: ATCC10031, pH 7.0.
Excerpt: as §2

Series [29] concerns Proteus vulgaris ATCC 6897. The experiment in a line: antibacterial activity by agar dilution method. It counts as cell-based. The conditions noted are these: ATCC6897, pH 7.0.
Excerpt: as §2

≈ marks a conversion by molar mass, not a printed value. Entries after “also recorded” stand apart in the source; their conditions may differ. A value given as a limit tells only on which side of the number the result lay.

Turning to `CC(=O)OC1CC(/C=C/C(=O)OC2=C(O)CCC2=O)=CN1` (centres unmarked) [Compound S551-II], the MIC (commonly the lowest concentration found to suppress growth) was 62.5 µg/mL (≈ 213 µM) in series [1]; 125 µg/mL (≈ 426 µM) in [2]; 1000 µg/mL (≈ 3410 µM) in series [3]; over 1000 µg/mL in the series with Salmonella enteritidis; 16 µg/mL (≈ 54.6 µM) against Irycoderma T-1 ATCC 9645; 125 µg/mL (≈ 426 µM) with gypseum IFO 5948. The minimal inhibitory concentration (MIC) is 62.5 µg/mL (≈ 213 µM) in series [4]; 500 µg/mL (≈ 1700 µM) in series [5]; 8 µg/mL (≈ 27.3 µM) in series [6]; 31.2 µg/mL (≈ 106 µM) in series [7]; 1000 µg/mL (≈ 3410 µM) in series [8]; over 1000 µg/mL in [9]. Further, the MIC in the series on Sarcina lutea IAM 1099 came to 125 µg/mL (≈ 426 µM); in the series with Diplococcus pneumoniae it was 1000 µg/mL (≈ 3410 µM); in [10] it was 500 µg/mL (≈ 1700 µM); in [11], 125 µg/mL (≈ 426 µM); in [12], 4 µg/mL (≈ 13.6 µM); in [13] it was 125 µg/mL (≈ 426 µM). In addition, the MIC is over 1000 µg/mL in [14]; 1000 µg/mL (≈ 3410 µM) in series [15]; over 1000 µg/mL in [16]; 31.2 µg/mL (≈ 106 µM) in [17]; over 1000 µg/mL in [18]; 100 µg/mL (≈ 341 µM) in the series with Saccharomyces rouxii M-9. Further, the minimal inhibitory concentration (MIC) in series [19] was 500 µg/mL (≈ 1700 µM); in [20], 62.5 µg/mL (≈ 213 µM); against Shigella sonnei E23, over 100 µg/mL; in series [21] it was over 1000 µg/mL; in the series with Bacillus subtilis NA 64, 62.5 µg/mL (≈ 213 µM); in [22], over 1000 µg/mL. The minimal inhibitory concentration (MIC) in series [23] amounted to 62.5 µg/mL (≈ 213 µM); in series [24], 250 µg/mL (≈ 852 µM).
`O=C(/C=C/c1cc[nH]c1)OC1=C(O)CCC1=O` [Compound S551-II-A]: in “Solubilities”, the Solubilities result was “soluble in acetone, dimethylsulfoxide and alkaline solution; also recorded: slightly soluble in methanol; also recorded: insoluble in benzene, chloroform ethylether and hexane”. Also, the MIC in [25] turned out to be 500 µg/mL (≈ 2140 µM); in series [26], 200 µg/mL (≈ 858 µM); in series [27], 200 µg/mL (≈ 858 µM); in series [28], 200 µg/mL (≈ 858 µM); in series [29], 25 µg/mL (≈ 107 µM).
